Common to all, as to assay type: cell-based
Assay [1] deals with Rat adult neural stem cell line ANSC-7 cells. Briefly: Test Example 1: Proliferation promoting activity on neural stem cells (1), Hoechst 33342 nucleus staining fluorescence. Conditions: 96 hours culture, nucleus-stain fluorescence, read-out: proliferation promoting activity (relative value, negative control = 100%); for activity at 1 µM: 1.0 μmol/L; for activity at 0.32 µM: 0.32 μmol/L. As for the experimental part: Rat adult neural stem cell line ANSC-7 cells prepared by the method described in the following Reference Example 1 were suspended in DMEM/F12 medium (manufactured by Invitrogen) supplemented with N-2 additives [5 μg/mL insulin (manufactured by Sigma), 100 μg/mL bovine apotransferrin (manufactured by Sigma), 6.3 ng/mL progesterone (manufactured by Sigma), 1.6 μg/mL putrescine (manufactured by Sigma) and 5.2 ng/mL sodium selenate (manufactured by Sigma)] and an antibiotics mixed liquid [0.05 U/mL penicillin and 0.05 μg/mL streptomycin (manufactured by Invitrogen)] (to be referred to as assay medium hereinafter), at a density of 1.7×10^5 cells/mL; inoculated at 0.1 mL in a 96 well plate (manufactured by Costar) of which surface was processed with polyornithine and laminin; and cultured overnight at 37° C. under an atmosphere of 5% CO2. Thereafter, 50 μl of the culture supernatant was removed, and 50 μl of a test compound which was serially diluted with the assay medium to 2 times of the final concentration or DMSO (negative control) was added to each well. After the culturing for 96 hours, 50 μl of the culture supernatant was removed, and 50 μl of a 15% neutral buffered formalin liquid (manufactured by Wako Pure Chemical Industries, Ltd.) cooled to be 4° C. was added to each well and allowed to stand for 1 hour. Thereafter, by washing twice using PBS containing 0.3% Triton X-100 (manufactured by Nacalai Tesque) (hereinafter TBST), 50 μl of Hoechst 33342 (manufactured by Nacalai Tesque) adjusted to 3.3 μmol/L with 5% skim milk solution diluted with PBS containing 0.5% Triton X-100 was added to each well and the nucleus was stained overnight at 4° C. in the dark. After washing twice with 100 μl/well of TBST and then once with PBS and subsequently soaking in 100 μl/well of PBS, fluorescence intensity of the nucleus-stained cells was measured using a fluorometer FDSS 6000 (Hamamatsu Photonics K.K.). By regarding the measured value of well to which the cells were not inoculated as 0%, and the measured value of negative control as 100%, relative values in the test compound addition group were calculated.
(§1) After putting a 7-week-old Sprague Dawley Rat to sleep by ether anesthesia and subsequent decapitation, the skull was cut open from the parietal region to extract the brain. Under a microscope, tissues including circumventricular region were isolated from the extracted brain by using ophthalmic scissors and tweezers. The tissues including circumventricular region were cut into fragments of about 1 mm^3 using ophthalmic scissors and scalpels and then subjected to 30 minutes of digestion reaction at 37° C. in 5 mL of Hanks' buffer containing 2.5 U/mL of papain, 250 U/mL of DNase (all manufactured by Worthington, Freehold, N.J.) and 1 U/mL of a neutral protease (Dispase, manufactured by Boehringer-Mannheim Corp.) (HBSS buffer, manufactured by Invitrogen). The mixture of cells and tissues obtained by the reaction was washed three times with DMEM (manufactured by Invitrogen) containing 10% fetal bovine serum (manufactured by Hyclone) and then dissolved in the DMEM containing 10% fetal bovine serum, followed by removing the undigested materials using a nylon mesh of 10 μm.
(§2) The thus obtained cells crude extract was cultured overnight on a culture dish of 10 cm, in an incubator of 37° C. using DMEM/F12 medium (manufactured by Invitrogen) containing 10% fetal bovine serum. On the next day, the medium was replaced with DMEM/F12 containing 1% of N-2 additives (manufactured by Invitrogen) and 20 ng/mL of FGF 2 (manufactured by Pepro Tech) and the culturing was started. Once in 3 days, half of the medium was replaced with new DMEM/F12 containing 1% of N-2 additives and 20 ng/mL of FGF 2 and the culturing was continued.
When a small colony consisted of small cells was formed, it was treated with 1% trypsin for 30 seconds to 1 minute, and the cells detached were harvested. […]

Assay [2] has the same test system. In words: Test Example 2: Proliferation promoting activity on neural stem cells (2), viable cell counting reagent SF absorbance. The note with it: 96 hours culture, absorbance 490 nm, read-out: proliferation promoting activity (relative value, negative control = 100%); for activity at 1 µM: 1.0 μmol/L; for activity at 0.32 µM: 0.32 μmol/L. As for the experimental part:
(§3) Rat adult neural tem cell line ANSC-7 cells prepared by the method described in the following Reference Example 1 were suspended in the assay medium at a density of 1.7×10^5 cells/mL; inoculated in 0.1 mL portion in a 96 well plate (manufactured by Costar) of which surface was processed with polyornithine and laminin; and cultured overnight at 37° C. under an atmosphere of 5% CO2. Thereafter, 50 μl of the culture supernatant was removed, and 50 μl of a test compound which was serially diluted with the assay medium to 2 times of the final concentration or DMSO (negative control) was added to each well. After the culturing for 96 hours, 10 μl per well of a viable cell counting reagent SF (manufactured by Nacalai Tesque) was added to the culture. After culturing at 37° C. for 3 hours in a 5% CO2 incubator and subsequent stirring for 1 minute, absorbance at 490 nm (control wavelength 655 nm) was measured using a microplate spectrophotometer Emax (manufactured by Molecular Device). By regarding the measured value of well to which the cells were not inoculated as 0%, and the measured value of negative control as 100%, relative values in the test compound addition group were calculated.
as §1, §2
(§4) When a small colony consisted of small cells was formed, it was treated with 1% trypsin for 30 seconds to 1 minute, and the cells detached were harvested. The harvested cells were inoculated on a multiple well culture dish (manufactured by Fisher Scientific) which had been coated at room temperature overnight using 10 μg/mL of polyornithine (manufactured by Sigma) and at 37° C. overnight using 5 μg/mL of mouse EHS tumor-derived laminin (Becton Dickinson), and the culturing was continued.
(§5) By continuing the above-mentioned culturing, small cells having small protrusion and thickness were concentrated. The cells were used as adult neural stem cells in the above-mentioned tests (Test Examples 1 to 3).

Assay [3] has the same test system. In words: Test Example 3: Proliferation promoting activity on neural stem cells (3), same manner as Test Example 2. The note with it: 96 h; for activity at 0.001 µM: 1 nmol/L; for activity at 3.2 µM: 3.2 μmol/L; for activity at 0.01 µM: 10 nmol/L. As for the experimental part: as §3
Each of the tests was carried out in the same manner as in Test Example 2.
as §1, §2, §4, §5

Setting [4] is: same manner as Test Example 2, read-out: proliferation promoting activity (relative value, negative control = 100%).

Some results are limits rather than exact numbers.

Consider `C=C(CCC(=C)C1CC(O)C2C3=CCC4CC(O)CCC4(C)C3CCC12C)C(C)C` (stereo not shown) [Compound D], for which the values for the activity at 1 µM in assay [1] and in assay [2] were no less than 140% and no less than 130%, respectively.
For `C=C(CCC1(C)OC(=O)C23CCC4C5(C)CCC(O)CC5CC5OC54C2C(O)CC13)C(C)C` (stereo not shown) [Compound H], the activity at 1 µM in assay [2] was no less than 130%.
For the molecule `C=C(CCC1(C)OC2OC3CC1C21CCC2C4(C)CCC(=O)CC4CC4OC42C31)C(C)C` (stereo not shown) [Compound A2], the activity at 0.32 µM in assay [1] is no less than 160%.
For `CC(C)C(C)CCC1(C)OC2OC3CC1C21CCC2C4(C)CCC(O)CC4CC4OC42C31` (stereo not shown) [Compound A3], the activity at 0.32 µM in assay [1] is no less than 160%.
As to `CC(C)=CC(=O)c1cccc2c3c([nH]c12)C(C)(C)C1CC24CCCN2CC1(C3)NC4=O` (stereo not shown) [Compound N], the activity at 1 µM in assay [3] (1 μmol/L, same manner as Test Example 2, read-out: proliferation promoting activity (relative value, negative control = 100%)) came to 120%.
As for `C=C(CCC1(C)OC2OC3CC1C21CCC2C4(C)CCC(OC(C)=O)CC4CC4OC42C31)C(C)C` (stereo not shown) [Compound A1], in assay [1], the activity at 0.32 µM was no less than 160%.
Regarding `C=C(CCC(C)(O)C1CC(O)C2C3=CCC4CC(O)CCC4(C)C3CCC21C)C(C)C` (stereo not shown) [Compound J], in assay [2] (3.2 μmol/L), the activity at 3.2 µM is no less than 125%.
For `C=C(CCC(C)C1CCC2C3=C(CCC21C)C1(C)CCC(O)CC1C(=O)O3)C(C)C` (stereo not shown) [Compound E], the results for the activity at 0.32 µM in assay [1] and in assay [2] were no less than 150% and no less than 130%, respectively.
With `C=C(CCC(C)C1CCC2=C3OC(=O)C4CC(O)CCC4(C)C3CCC21C)C(C)C` (stereo not shown) [Compound U], the activity at 0.001 µM in assay [3] (setting [4]) is no less than 120%.
As for `CC(C)C(C)/C=C/C(C)C1CCC2/C(=C/C(=O)OC3CCC(C)(O)C(=O)C3)C(=O)CCC21C` (stereo not shown) [Compound BB], in assay [3] (setting [4]), the activity at 3.2 µM came out at 120%.
Consider `C=C(CCC1(C)OC2OC3CC1C21CCC2C4(C)CCC(O)CC4CCC2(O)C31)C(C)C` (stereo not shown) [Compound A5], for which the activity at 0.32 µM in assay [1] was no less than 160%.
As to `C=C(CCC(C)(O)C1CC(O)C2=C3C(O)CC4CC(O)CCC4(C)C3CCC21C)C(C)C` (stereo not shown) [Compound Y], the activity at 3.2 µM in assay [3] (setting [4]) turned out to be 120%.
`CC(C)C(C)/C=C/C(C)C1CCC2/C(=C/C(=O)OC3(C)CCC(O)CC3=O)C(=O)CCC21C` (stereo not shown) [Compound AA]: the activity at 3.2 µM in assay [3] (setting [4]) came to 120%.
`C=C(CCC(C)C1CCC2C3=C(CCC21C)C1(C)CCC(O)CC1CC3=O)C(C)C` (stereo not shown) [Compound F]: the activity at 1 µM is no less than 140% in assay [1] and no less than 130% in assay [2].
Regarding `C=C(CCC(=C)C1CC(O)C2C3=CCC4CC(=O)CCC4(C)C3CCC12C)C(C)C` (stereo not shown) [Compound K], the activity at 1 µM in assay [2] is no less than 130%.
On to `C=C(CCC(C)C1CCC2C3C(=O)CC4CC(O)CCC4(C)C3CCC12C)C(C)C` (stereo not shown) [Compound W], for which the activity at 0.01 µM in assay [3] (setting [4]) is no less than 120%.
In the case of `C=C(CCC1(C)OC2OC3CC1C21CCC2C(=CCC4CC(O)CCC42C)C31)C(C)C` (stereo not shown) [Compound B], in assay [1], the activity at 1 µM is no less than 140%.
Take `C=C(CCC1(C)OC2OC3CC1C21CCC2C4(C)CCC(O)CC4CC4OC42C31)C(C)C` (stereo not shown) [Compound A]: the activity at 0.32 µM is no less than 150% in assay [1] and no less than 130% in assay [2].
`COC(C)(C)/C=C/c1cccc2c3c([nH]c12)C(C)(C)C1CC24CCCN2CC1(C3)NC4=O` (stereo not shown) [Compound M]: in assay [3] (read-out: proliferation promoting activity (relative value, negative control = 100%)), the activity at 0.32 µM was 120%.
Consider `C=C(CCC(C)(O)C1CCC2C3=CCC4CC(O)CCC4(C)C3CCC21C)C(C)C` (stereo not shown) [Compound C], for which the figures for the activity at 0.32 µM in assay [1] and in assay [2] were no less than 150% and no less than 130%, respectively.
`C=C(CCC1(C)OC2OC3CC1C21CCC2C(=CC=C4CC(O)CCC42C)C31)C(C)C` (stereo not shown) [Compound L]: in assay [2], the activity at 0.32 µM was no less than 130%.
On to `C=C(CCC(C)C1CC=C2C3=C(CCC21C)C1(C)CCC(O)CC1C(=O)O3)C(C)C` (stereo not shown) [Compound V], for which the activity at 0.001 µM in assay [3] (setting [4]) is no less than 120%.
As for `C=C(/C=C/C(C)C1CCC2C3C(=O)CC4CC(O)CCC4(C)C3CCC12C)C(C)C` (stereo not shown) [Compound X], the activity at 0.01 µM in assay [3] (setting [4]) was no less than 120%.

These data come from patent US20110020931A1, “PROLIFERATION PROMOTING AGENT FOR NEURAL STEM CELLS” (KYOWA HAKKO KIRIN CO., LTD., priority 2008, published 2011).
